Results taken from publication PMC5951806, “Rapid labelling and covalent inhibition of intracellular native proteins using ligand-directed N-acyl-N-alkyl sulfonamide” (Nature Communications, 2018).

Target: 60 kDa heat shock protein, mitochondrial (HSPD1) (Homo sapiens, UniProt P10809)
Test: TMT LC-MSMS of 11-labelled proteins
Format: cell-based

Chain of 60 kDa heat shock protein, mitochondrial (HSPD1) (P10809 27-573): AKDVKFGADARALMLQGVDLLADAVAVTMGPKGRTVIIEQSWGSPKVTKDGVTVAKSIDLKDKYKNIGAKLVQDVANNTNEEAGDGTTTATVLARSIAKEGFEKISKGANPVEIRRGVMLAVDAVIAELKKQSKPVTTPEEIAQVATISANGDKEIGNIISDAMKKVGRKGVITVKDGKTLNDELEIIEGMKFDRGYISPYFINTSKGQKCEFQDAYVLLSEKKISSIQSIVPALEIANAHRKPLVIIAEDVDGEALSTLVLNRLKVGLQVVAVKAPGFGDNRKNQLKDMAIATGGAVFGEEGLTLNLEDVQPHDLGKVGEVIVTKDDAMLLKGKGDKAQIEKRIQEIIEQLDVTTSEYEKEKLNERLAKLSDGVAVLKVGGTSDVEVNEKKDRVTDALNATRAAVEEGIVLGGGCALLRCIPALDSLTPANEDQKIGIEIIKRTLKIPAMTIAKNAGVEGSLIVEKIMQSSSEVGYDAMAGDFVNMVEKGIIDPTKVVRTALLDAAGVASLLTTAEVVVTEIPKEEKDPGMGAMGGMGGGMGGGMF

## CC(=O)Oc1ccc2c(c1)Oc1cc(OC(C)=O)ccc1C21OC(=O)c2cc(C(=O)NCCOCCOCCNC(=O)CCCC(=O)N(CC#N)S(=O)(=O)c3ccc(C(=O)NCCCn4c(Sc5cc6c(cc5I)OCO6)nc5c(N)ncnc54)cc3)ccc21 [compound 11]
Exp3, HSPD1
  Abundance Ratio: (11) / (11 with PU-H71): 0.857
  Abundance Ratio: (11) / (DMSO): 2.057
  Abundances (Grouped): 11: 57.6
  Abundances (Grouped): 11 with PU-H71: 67.2
Sheet Exp2, HSPD1
  Abundance Ratio: (11) / (11 with PU-H71): 1.035
  Abundance Ratio: (11) / (DMSO): 2.527
  Abundances (Grouped): 11: 61.4
  Abundances (Grouped): 11 with PU-H71: 59.3
Sheet Merged, SKBR3 cells, 11 0.5 µM 3 h vs DMSO
  Abundance Ratio: (11) / (DMSO): 2.28
Sheet Merged, SKBR3 cells, 11 0.5 µM 3 h vs with PU-H71 10 µM
  Abundance Ratio: (11) / (11 with PU-H71): 0.942
